Experimental data: the supplement of paper PMC10307832

How the values were obtained:
Test in all cases: relative viability (nuclei count vs DMSO), 5 days (fraction); higher = more cells survive
[1] = compound: CC1=CC(=C(N1C2=CC=C(C=C2)Cl)C)C(=O)CN3CCCCC3 [IU1-47] + CCNC(=O)c1noc(-c2cc(C(C)C)c(O)cc2O)c1-c1ccc(CN2CCOCC2)cc1 [Luminespib] (partner 0.01 µM)
Summary of the method: (§1)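 A single step with final 0.05% Triton X-100, 1% formaldehyde and 1 ug/ml Hoechst fixed the cells and stained nuclei 5 days after treatment. Lung cancer cell lines in 1536-well plates had been treated by pin tool the day after seeding with one drug alone or a fixed anchor-drug dose plus five library-drug doses (not always all listed) in √10 steps, and nuclei were counted on 4× images. Relative viability is the ratio of nuclei in treated wells to nuclei in vehicle wells, taken as the median of duplicate plates.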

[2] = compound: Cc1nc(C(=O)NCC(=O)O)c(O)c2ccc(Oc3ccccc3)cc12 [FG-4592] + CS(=O)(=O)N1CCN(Cc2cc3nc(-c4cccc5[nH]ncc45)nc(N4CCOCC4)c3s2)CC1 [Pictilisib] (partner 1 µM)
Summary of the method: as §1

[3] = compound: Cc1nc(C(=O)NCC(=O)O)c(O)c2ccc(Oc3ccccc3)cc12 [FG-4592] + NC(=O)Nc1cc(-c2cccc(F)c2)sc1C(=O)N[C@H]1CCCNC1 [AZD7762] (partner 0.2 µM)
Summary of the method: as §1

[4] = compound: CC1=CC(=C(N1C2=CC=C(C=C2)Cl)C)C(=O)CN3CCCCC3 [IU1-47] + O=C(c1cc(Cc2n[nH]c(=O)c3ccccc23)ccc1F)N1CCN(C(=O)C2CC2)CC1 [Olaparib] (partner 8 µM)
Summary of the method: as §1

Cell Line	relative viability ([1]; first compound 0.08 µM)	relative viability ([1]; first compound 0.253 µM)	relative viability ([1]; first compound 0.8 µM)	relative viability ([1]; first compound 8 µM)	relative viability ([2]; first compound 0.08 µM)	relative viability ([2]; first compound 0.253 µM)	relative viability ([2]; first compound 0.8 µM)	relative viability ([2]; first compound 2.53 µM)	relative viability ([2]; first compound 8 µM)	relative viability ([3]; first compound 0.08 µM)	relative viability ([3]; first compound 0.253 µM)	relative viability ([3]; first compound 0.8 µM)	relative viability ([3]; first compound 2.53 µM)	relative viability ([3]; first compound 8 µM)	relative viability ([4]; first compound 0.08 µM)	relative viability ([4]; first compound 0.253 µM)	relative viability ([4]; first compound 0.8 µM)	relative viability ([4]; first compound 2.53 µM)	relative viability ([4]; first compound 8 µM)	relative viability ([1]; first compound 2.53 µM)
NCI-H1915	0.816	0.804	0.848	0.728	0.913	0.915	0.873	0.93	0.95	0.672	0.652	0.715	0.637	0.669	0.251	0.267	0.267	0.252	0.261	
NCI-H1793	0.177	0.188	0.165	0.171	0.281	0.384		0.228	0.354		0.48		0.696	0.37	0.861		1.1	1.01	0.87	
RERF-LC-KJ	1.22	1.3	1.34	1.39	0.476	0.539	0.552	0.574	0.477	0.913	0.992	0.815	0.883	0.969	0.867	0.916	0.894	0.943	0.789	1.24
LXF-289	0.822	0.629	0.916	0.468	0.776	0.696	0.822	0.708	0.769	1.12	1.01	1.27	1.08	1.34	1.08	1.15	1.09	0.993	0.862	0.5
PC-14	0.185	0.168	0.186	0.179	0.681	0.752	0.756	0.624	0.73	0.356	0.341	0.284	0.342	0.282	0.197	0.308	0.204	0.238	0.233	0.151
NCI-H650	0.849	0.81	0.831	0.828	0.879	0.916	0.739	0.801	0.872	1.06	1.03	1.09	1.04	0.755	0.447	0.426	0.378	0.4	0.413	0.671
NCI-H1666	1.08	1.02	0.938	0.854	0.41	0.341	0.42	0.486	0.321	0.81	0.764	0.899	0.9	0.875	0.757	0.681	0.79	0.713	0.759	0.942
NCI-H2085	0.446	0.5	0.522	0.318	0.356	0.425	0.426	0.438	0.449	0.983	0.956	0.905	0.992	0.893	0.777	0.763	0.747	0.768	0.742	0.446
